# In ChEMBL document CHEMBL4819016, “2-Propargylamino-naphthoquinone derivatives as multipotent agents for the treatment of Alzheimer's disease” (Eur J Med Chem, 2021):
# The source made the active and inactive calls. No cut-off for these calls is given here.
# Tests used:
# [1] = Cytotoxicity against mouse SIM-A9 cells measured after 24 hrs by MTT assay; assay type: functional, cell-based; conditions: SIM-A9, 24 h
# [2] = target: Amyloid-beta precursor protein (Homo sapiens) (UniProt P05067); assay: Inhibition of HFIP-pretreated amyloid beta (1 to 42) (unknown origin) self aggregation at 50 uM measured every 10 mins for 72 hrs by Thioflavin T flourimetric assay relative to control
# Sequence of Amyloid-beta precursor protein (Homo sapiens) (P05067 whole entry): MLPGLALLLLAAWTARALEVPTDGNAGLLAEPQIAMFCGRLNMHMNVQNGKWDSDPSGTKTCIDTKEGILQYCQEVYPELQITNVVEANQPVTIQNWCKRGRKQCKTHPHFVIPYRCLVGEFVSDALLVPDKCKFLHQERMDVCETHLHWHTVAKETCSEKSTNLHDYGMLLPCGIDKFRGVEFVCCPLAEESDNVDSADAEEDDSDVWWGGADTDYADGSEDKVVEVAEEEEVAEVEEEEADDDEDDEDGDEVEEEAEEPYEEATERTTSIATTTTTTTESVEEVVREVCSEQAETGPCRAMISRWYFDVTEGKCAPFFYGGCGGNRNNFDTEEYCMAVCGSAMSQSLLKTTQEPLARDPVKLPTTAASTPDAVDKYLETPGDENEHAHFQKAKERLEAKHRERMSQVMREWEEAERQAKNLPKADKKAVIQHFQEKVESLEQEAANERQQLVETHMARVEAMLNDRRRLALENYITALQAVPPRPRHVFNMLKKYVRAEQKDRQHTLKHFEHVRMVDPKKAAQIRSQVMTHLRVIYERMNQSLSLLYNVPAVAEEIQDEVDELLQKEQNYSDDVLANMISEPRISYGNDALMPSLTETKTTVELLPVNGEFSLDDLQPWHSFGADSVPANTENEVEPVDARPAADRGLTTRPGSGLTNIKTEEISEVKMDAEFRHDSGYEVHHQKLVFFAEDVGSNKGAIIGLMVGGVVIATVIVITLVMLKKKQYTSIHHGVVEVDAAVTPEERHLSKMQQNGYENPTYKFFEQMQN
# [3] = target: T1, Amine oxidase [flavin-containing] A (Homo sapiens, UniProt P21397); assay: Inhibition of human MAO-A preincubated for 5 mins followed by addition of Kynuramine substrate and measured after 30 mins by plate reader method
# T1 sequence (P21397 whole entry): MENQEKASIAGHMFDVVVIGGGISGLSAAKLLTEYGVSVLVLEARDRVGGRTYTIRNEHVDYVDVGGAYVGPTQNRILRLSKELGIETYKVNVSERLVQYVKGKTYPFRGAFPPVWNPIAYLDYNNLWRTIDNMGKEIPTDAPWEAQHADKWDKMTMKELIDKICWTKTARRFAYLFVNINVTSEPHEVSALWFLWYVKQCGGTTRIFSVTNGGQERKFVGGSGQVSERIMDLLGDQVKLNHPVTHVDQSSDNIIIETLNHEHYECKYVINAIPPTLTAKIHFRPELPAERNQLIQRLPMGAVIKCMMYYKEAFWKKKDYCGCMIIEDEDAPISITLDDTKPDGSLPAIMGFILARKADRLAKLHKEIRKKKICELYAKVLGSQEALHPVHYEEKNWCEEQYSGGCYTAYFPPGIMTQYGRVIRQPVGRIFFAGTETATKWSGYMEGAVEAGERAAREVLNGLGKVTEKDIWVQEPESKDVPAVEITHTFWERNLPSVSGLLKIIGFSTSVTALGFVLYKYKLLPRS
# [4] = Cytotoxicity against mouse SIM-A9 cells assessed as non-toxic concentration measured after 24 hrs by MTT assay; assay type: functional
# [5] = target: T2, Amine oxidase [flavin-containing] B (Homo sapiens, UniProt P27338); assay: Reversible inhibition of human MAO-B using Kynuramine as substrate at pH 7 measured after 30 mins by plate reader method; conditions: pH 7, 0.5 h
# T2 sequence (P27338 whole entry): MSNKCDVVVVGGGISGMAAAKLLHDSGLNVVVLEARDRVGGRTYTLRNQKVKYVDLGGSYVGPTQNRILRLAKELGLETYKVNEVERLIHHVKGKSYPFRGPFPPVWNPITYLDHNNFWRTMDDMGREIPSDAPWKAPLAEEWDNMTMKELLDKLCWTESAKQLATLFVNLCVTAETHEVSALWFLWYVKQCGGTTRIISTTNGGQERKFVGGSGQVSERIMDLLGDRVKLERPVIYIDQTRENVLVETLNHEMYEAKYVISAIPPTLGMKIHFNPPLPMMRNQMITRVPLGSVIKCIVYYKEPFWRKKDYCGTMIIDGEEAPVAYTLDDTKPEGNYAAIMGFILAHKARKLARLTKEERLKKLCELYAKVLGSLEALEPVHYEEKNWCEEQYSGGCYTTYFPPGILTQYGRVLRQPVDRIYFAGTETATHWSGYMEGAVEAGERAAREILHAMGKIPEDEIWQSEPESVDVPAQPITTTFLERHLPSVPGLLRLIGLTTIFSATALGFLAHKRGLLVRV
# [6] = target: T2, Amine oxidase [flavin-containing] B; assay: Inhibition of human MAO-B preincubated for 5 mins followed by addition of Kynuramine substrate and measured after 30 mins by plate reader method
# Homo sapiens = organism: Homo sapiens; assay: Selectivity index, ratio of IC50 for human MAO-A to IC50 for human MAO-B using Kynuramine as substrate measured by plate reader method
# SH-SY5Y = assay: Cytotoxicity against human SH-SY5Y cells measured after 24 hrs by MTT assay; assay type: functional, cell-based
# [7] = Permeability of compound at pH 7.4 measured after 6 hrs by PAMPA assay
# [8] = target: T2, Amine oxidase [flavin-containing] B; assay: Mixed inhibition of human MAO-B assessed as increase of Km with decrease of Vmax using Kynuramine at 0.3 to 2 uM measured after 30 mins by plate reader method; conditions: 0.5 h, dose 0.3-2 µM
# [9] = target: T2, Amine oxidase [flavin-containing] B; assay: Non-covalent inhibition of human MAO-B using Kynuramine as substrate measured upto 60 mins by plate reader method; conditions: 1 h
# [10] = target: T2, Amine oxidase [flavin-containing] B; assay: Competitive inhibition of human MAO-B assessed as increase of Km with constant Vmax using Kynuramine at 0.05 to 0.2 uM measured after 30 mins by plate reader method; conditions: 0.5 h, dose 0.05-0.2 µM
# [11] = Radical scavenging activity of compound measured after 15 mins by ABTS radical scavenging activity in relative to clioquinol; assay type: functional
# [12] = Metal chelating activity assessed as compound-Cu2+ complex formation measured by EPR-spectroscopy; assay type: functional
# [13] = target: T2, Amine oxidase [flavin-containing] B; assay: Mixed inhibition of human MAO-B using Kynuramine as substrate measured upto 60 mins by plate reader method; conditions: 1 h
# [14] = Anti-inflammatory activity in mouse SIM-A9 cells assessed as decrease in LPS-induced IL-6 production at 1 ug/ml preincubated for 1 hr followed by stimulation with LPS and measured after 23 hrs by ELISA assay; assay type: functional; set-up: scale not given: the % may be the effect or the level left; conditions: dose 1 µg/ml; time 24 hrs
# [15] = Anti-inflammatory activity in mouse SIM-A9 cells assessed as decrease in LPS-induced TNF-alpha production at 1 ug/ml preincubated for 1 hr followed by stimulation with LPS and measured after 23 hrs by ELISA assay; assay type: functional; set-up: scale not given: the % may be the effect or the level left; conditions: dose 1 µg/ml; time 24 hrs
# [16] = Radical scavenging activity of compound in presence of Cu+2 measured after 15 mins by ABTS radical scavenging activity in relative to clioquinol; assay type: functional
# [17] = Anti-inflammatory activity in mouse SIM-A9 cells assessed as decrease in LPS-induced IL-6 production at 8 uM preincubated for 1 hr followed by stimulation with LPS and measured after 23 hrs by ELISA assay; assay type: functional; set-up: scale not given: the % may be the effect or the level left; conditions: time 24 hrs
# [18] = Toxicity in human SH-SY5Y cells assessed by glutathione depletion at 10 uM measured after 24 hrs by monochlorobimane based plate reader assay; assay type: cell-based
# [19] = Anti-inflammatory activity in mouse SIM-A9 cells assessed as decrease in LPS-induced IL-6 production at 2 uM preincubated for 1 hr followed by stimulation with LPS and measured after 23 hrs by ELISA assay; assay type: functional; set-up: scale not given: the % may be the effect or the level left; conditions: time 24 hrs
# [20] = Anti-inflammatory activity in mouse SIM-A9 cells assessed as decrease in LPS-induced TNF-alpha production at 8 uM preincubated for 1 hr followed by stimulation with LPS and measured after 23 hrs by ELISA assay; assay type: functional; set-up: scale not given: the % may be the effect or the level left; conditions: time 24 hrs
# [21] = Toxicity in human SH-SY5Y cells assessed as change in respiratory states by measuring ETS at 0.1 to 100 uM measured after 24 hrs by respirometer; assay type: cell-based; conditions: dose 0.1-100 µM
# [22] = Toxicity in human SH-SY5Y cells assessed as change in respiratory states by measuring ROX at 0.1 to 100 uM measured after 24 hrs by respirometer; assay type: cell-based; conditions: dose 0.1-100 µM
# [23] = Toxicity in human SH-SY5Y cells assessed as change in respiratory states by measuring LEAK at 0.1 to 100 uM measured after 24 hrs by respirometer; assay type: cell-based; conditions: dose 0.1-100 µM
# [24] = Toxicity in human SH-SY5Y cells assessed by intracellular dehydrogenase activity at 10 uM measured after 24 hrs by WST-1 assay; assay type: cell-based; conditions: read-out: Activity
# [25] = Anti-inflammatory activity in mouse SIM-A9 cells assessed as decrease in LPS-induced TNF-alpha production at 2 uM preincubated for 1 hr followed by stimulation with LPS and measured after 23 hrs by ELISA assay; assay type: functional; set-up: scale not given: the % may be the effect or the level left; conditions: time 24 hrs
# [26] = Toxicity in human SH-SY5Y cells assessed by intracellular dehydrogenase activity at 100 uM measured after 24 hrs by WST-1 assay; assay type: cell-based; conditions: read-out: Activity
# [27] = Anti-inflammatory activity in mouse SIM-A9 cells assessed as decrease in LPS-induced TNF-alpha production at 4 uM preincubated for 1 hr followed by stimulation with LPS and measured after 23 hrs by ELISA assay; assay type: functional; set-up: scale not given: the % may be the effect or the level left; conditions: time 24 hrs
# [28] = Anti-inflammatory activity in mouse SIM-A9 cells assessed as decrease in LPS-induced IL-6 production at 4 uM preincubated for 1 hr followed by stimulation with LPS and measured after 23 hrs by ELISA assay; assay type: functional; set-up: scale not given: the % may be the effect or the level left; conditions: time 24 hrs
# [29] = Toxicity in human SH-SY5Y cells assessed by changes in mitochondrial membrane potential at 0.1 to 100 uM measured after 24 hrs by JC-1 probe based fluorescence reader assay; assay type: cell-based; conditions: dose 0.1-100 µM
# [30] = Toxicity in human SH-SY5Y cells assessed as change in respiratory states by measuring ROUTINE at 0.1 to 100 uM measured after 24 hrs by respirometer; assay type: cell-based; conditions: dose 0.1-100 µM
inhibition [2] [%],IC50 [3] [µM],IC50 [6] [µM],Selectivity Index (Homo sapiens),Papp at 6 h [7] [×10⁻⁶ cm/s],Compound,IC50 [1] [µM],MNTD [4] [µM],IC50 (SH-SY5Y) [µM],further results
24,9.81,0.27,36,20.8,C#CCNC1=CC(=O)c2ccccc2C1=O,34.6,4,> 64,inhibition (INH) [5]: Active; inhibition (INH) [8]: Active; inhibition (INH) [9]: Active
21.7,–,–,–,43.3,C#CCNC1=CC(=O)c2c(O)ccc(O)c2C1=O,5.3,0.4,15,–
67.4,6.64,8.62,0.77,18.5,C#CCN(C)C1=CC(=O)c2ccccc2C1=O,36.1,8,22,–
18.4,7.76,0.05,155,29.4,C#CCNC1=C(Cl)C(=O)c2ccccc2C1=O,10.4,4,4.6,inhibition (INH) [10]: Active; Activity [11]: Active; Activity [12]: Active; inhibition (INH) [13]: Active
–,–,–,–,–,C[C@@H]1C[C@H]2[C@@H]3CCC4=CC(=O)C=C[C@]4(C)[C@@]3(F)[C@@H](O)C[C@]2(C)[C@@]1(O)C(=O)CO [DEXAMETHASONE],–,–,–,Activity [14]: 40%; Activity [15]: 60%
11.2,–,–,–,18.5,C#CCNC1=CC(=O)c2cccc(OCC)c2C1=O,> 64,32,> 64,–
93.1,–,–,–,–,C[C@H]1c2cccc(O)c2C(=O)C2=C(O)[C@]3(O)C(=O)C(C(N)=O)=C(O)[C@@H](N(C)C)[C@@H]3[C@@H](O)[C@@H]21,–,–,–,–
–,–,–,–,0.04,CNC(=C[N+](=O)[O-])NCCSCc1ccc(CN(C)C)o1 [RANITIDINE],–,–,–,–
15.5,–,–,–,18.8,C#CCNC1=CC(=O)c2cccc(OC)c2C1=O,116,8,> 32,–
40.5,10,0.14,71,14,C#CCN(C)C1=C(Cl)C(=O)c2ccccc2C1=O,7.3,2,3.3,Activity [11]: Active; Activity [12]: Active; Activity [16]: 5%
17.5,–,–,–,25.5,C#CCNC1=CC(=O)c2cccc(OCc3ccccc3)c2C1=O,> 32,8,> 64,"Activity [17]: 49%; Activity [18]: 89%; Activity [19]: 95%; Activity [20]: 46%; Activity [21]: Non-Toxic; Activity [22]: Non-Toxic; Activity [23]: Non-Toxic; viability at 24 h, 10 µM [24]: 89%; Activity [25]: 76%; viability at 24 h, 100 µM [26]: 88%; Activity [11]: 15%; Activity [12]: Active; Activity [27]: 74%; Activity [16]: 10%; Activity [28]: 74%; Activity [29]: Non-Toxic; Activity [30]: Non-Toxic"
